Measured values reported in patent US10023539B2, “Aryl-cyanoguanidine compounds” (Bayer Pharma Aktiengesellschaft, priority 2014, dated 2018).

Biological target: SMYD2 (Homo sapiens (Human), UniProt Q9NRG4)
Assay: Scintillation Proximity Assay (SPA) for detection of SMYD2 enzymatic inhibition
Assay type: biochemical
Conditions: methylation of biotinylated p53 Peptide, 3H-SAM, full length SMYD2; read-out: IC50 [mol/l] (SPA Assay)
Method: 1.1 Scintillation Proximity Assay (SPA) for Detection of SMYD2 Enzymatic Inhibition
The SMYD2 full length enzyme was produced in-house by expression (with an N-terminal 6×His tag) in E. coli and purification by affinity chromatography on a Ni-NTA Sepharose column followed by a size exclusion chromatography step on a Superdex 200 16/60 column (GE Healthcare).
To this end, 100-fold concentrated compound solutions (in DMSO) were previously prepared by serial dilution (1:3.4) of 2 mM stocks in a clear low volume 384-well source microtiter plate (Greiner Bio-One), from which 50 nl of compound solutions were transferred into a white low volume test microtiter plate from the same supplier. […] The samples were then incubated for 15 min at 22° C. to allow pre-equilibration of the putative enzyme-inhibitor complexes before the start of the methylation reaction, which was initiated by the addition of 2.5 μl 2-fold concentrated solution (in assay buffer) of titrated S-Adenosyl-L-Methionine (3H-SAM, Perkin Elmer, final concentration: 60 nM) and p53 Peptide substrate (final concentration: 1.0 μM). The resulting mixture (5 μl final volume) was shortly centrifuged (2 min., 1500 rpm) and incubated at 22° C. during 30 min. Thereupon the reaction was stopped by adding 3 μl of Streptavidin PS SPA imaging beads (Perkin Elmer, final concentration of 3.12 μg/μl) and “cold” SAM (AK Scientific, 25 μM final concentration) for non-specific binding reduction. Plates containing the stopped reaction were sealed with transparent adhesive foil (Perkin Elmer), centrifuged (2 min., 1500 rpm), and further incubated for—at least—1 h at RT (or overnight at 4° C.) in order to allow the SPA signals to develop. […] IC50 values were calculated by fitting the normalized inhibition data to a 4-parameter logistic equation using the “Screener” analysis software from Genedata.

Chain of SMYD2 (Q9NRG4 whole entry): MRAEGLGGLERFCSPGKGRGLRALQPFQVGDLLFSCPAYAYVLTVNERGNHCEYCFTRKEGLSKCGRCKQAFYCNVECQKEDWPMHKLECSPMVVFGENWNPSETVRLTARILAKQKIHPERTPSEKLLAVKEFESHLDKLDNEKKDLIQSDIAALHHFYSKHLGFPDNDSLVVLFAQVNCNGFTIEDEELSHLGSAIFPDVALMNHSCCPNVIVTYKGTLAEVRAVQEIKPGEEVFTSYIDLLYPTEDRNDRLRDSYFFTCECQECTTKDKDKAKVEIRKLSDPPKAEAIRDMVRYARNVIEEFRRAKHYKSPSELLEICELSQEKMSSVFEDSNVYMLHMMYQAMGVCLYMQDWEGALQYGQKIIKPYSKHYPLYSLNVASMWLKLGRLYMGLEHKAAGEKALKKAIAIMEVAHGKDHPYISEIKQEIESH

Structure (SMILES) | IC50 [nM]
C[C@H](O)C(=O)NC1CN(/C(=N\C#N)Nc2cccc(OC(F)F)c2)N=C1c1ccc(Cl)c(Cl)c1 (mixture of isomers) [Example 1, (2S)—N-[1-{N′-cyano-N-[3-(difluoromethoxy)phenyl]carbamimidoyl}-3-(3,4-dichlorophenyl)-4,5-dihydro-1H-pyrazol-4-yl]-2-hydroxypropanamide] | 518
CN(C(=O)CO)C1CN(/C(=N\C#N)Nc2cccc(OC(F)F)c2)N=C1c1ccc(Cl)c(Cl)c1 (racemic) [Example 2, Rac-N-[1-{N′-cyano-N-[3-(difluoromethoxy)phenyl]carbamimidoyl}-3-(3,4-dichlorophenyl)-4,5-dihydro-1H-pyrazol-4-yl]-2-hydroxy-N-methylacetamide] | 83.3
CCN(C(=O)CO)C1CN(/C(=N\C#N)Nc2cccc(OC(F)(F)F)c2F)N=C1c1ccc(Cl)c(Cl)c1 (racemic) [Example 12, Rac-N-[1-{N′-cyano-N-[2-fluoro-3-(trifluoromethoxy)phenyl]carbamimidoyl}-3-(3,4-dichlorophenyl)-4,5-dihydro-1H-pyrazol-4-yl]-N-ethyl-2-hydroxyacetamide] | 138
CCN(C(=O)CO)C1CN(/C(=N\C#N)Nc2ccc(F)c(OC(F)(F)F)c2)N=C1c1ccc(Cl)c(Cl)c1 (racemic) [Example 14, Rac-N-[1-{N′-cyano-N-[4-fluoro-3-(trifluoromethoxy)phenyl]carbamimidoyl}-3-(3,4-dichlorophenyl)-4,5-dihydro-1H-pyrazol-4-yl]-N-ethyl-2-hydroxyacetamide] | 147
CCN(C(=O)CN)C1CN(/C(=N\C#N)Nc2cccc(OCCN(C)C)c2)N=C1c1ccc(Cl)c(Cl)c1 (racemic) [Example 17, Rac-N-[1-(N′-cyano-N-{3-[2-(dimethylamino)ethoxy]phenyl}carbamimidoyl)-3-(3,4-dichlorophenyl)-4,5-dihydro-1H-pyrazol-4-yl]-N-ethylglycinamide] | 59.5
CCN(C(=O)CO)C1CN(/C(=N\C#N)Nc2ccc(F)c(OC(F)F)c2)N=C1c1ccc(Cl)c(Cl)c1 (racemic) [Example 22, Rac-N-[1-{N′-cyano-N-[3-(difluoromethoxy)-4-fluorophenyl]carbamimidoyl}-3-(3,4-dichlorophenyl)-4,5-dihydro-1H-pyrazol-4-yl]-N-ethyl-2-hydroxyacetamide] | 64.8
CCN(C(=O)CO)C1CN(/C(=N\C#N)Nc2cccc(OC(F)F)c2F)N=C1c1ccc(Cl)c(Cl)c1 (racemic) [Example 23, Rac-N-[1-{N′-cyano-N-[3-(difluoromethoxy)-2-fluorophenyl]carbamimidoyl}-3-(3,4-dichlorophenyl)-4,5-dihydro-1H-pyrazol-4-yl]-N-ethyl-2-hydroxyacetamide] | 67.4
CCN(C(=O)CO)C1CN(/C(=N\C#N)Nc2cc(F)cc(OC(F)F)c2)N=C1c1ccc(Cl)c(Cl)c1 (racemic) [Example 24, Rac-N-[1-{N′-cyano-N-[3-(difluoromethoxy)-5-fluorophenyl]carbamimidoyl}-3-(3,4-dichlorophenyl)-4,5-dihydro-1H-pyrazol-4-yl]-N-ethyl-2-hydroxyacetamide] | 63.1
CCN(C(=O)CO)C1CN(/C(=N\C#N)Nc2cc(OC(F)(F)F)ccc2OC)N=C1c1ccc(Cl)c(Cl)c1 (racemic) [Example 26, Rac-N-[1-{N′-cyano-N-[2-methoxy-5-(trifluoromethoxy)phenyl]carbamimidoyl}-3-(3,4-dichlorophenyl)-4,5-dihydro-1H-pyrazol-4-yl]-N-ethyl-2-hydroxyacetamide] | 30.6
CCN(C(=O)CO)C1CN(/C(=N\C#N)Nc2cc(C(F)(F)F)ccc2OC(F)(F)F)N=C1c1ccc(Cl)c(Cl)c1 (racemic) [Example 28, Rac-N-[1-{N′-cyano-N-[2-(trifluoromethoxy)-5-(trifluoromethyl)phenyl]carbamimidoyl}-3-(3,4-dichlorophenyl)-4,5-dihydro-1H-pyrazol-4-yl]-N-ethyl-2-hydroxyacetamide] | 140
CCN(C(=O)CO)C1CN(/C(=N\C#N)Nc2cc(C(F)(F)F)ccc2OCCN2CCCC2)N=C1c1ccc(Cl)c(Cl)c1 (racemic) [Example 30, Rac-N-[r-(N′-cyano-N-[2-[2-(pyrrolidin-1-yl)ethoxy]-5-(trifluormethyl)phenyl]carbamimidoyl)-3-(3,4-dichlorophenyl)-4,5-dihydro-1H-pyrazol-4-yl]-N-ethyl-2-hydroxyacetamide] | 15.8
CCN(C(=O)CO)C1CN(/C(=N\C#N)Nc2cccc(OC(F)(F)F)c2)N=C1c1ccc(Cl)c(F)c1 (racemic) [Example 35, Rac-N-[3-(4-chloro-3-fluorophenyl)-1-{N′-cyano-N-[3-(trifluoromethoxy)phenyl]-carbamimidoyl}-4,5-dihydro-1H-pyrazol-4-yl]-N-ethyl-2-hydroxyacetamide] | 157
CCN(C(=O)CO)C1CN(/C(=N\C#N)Nc2ccc(Cl)c(OC(F)F)c2)N=C1c1ccc(Cl)c(Cl)c1 (single isomer, unassigned) [Example 11.1, N-[1-{N-[4-chloro-3-(difluoromethoxy)phenyl]-N′-cyanocarbamimidoyl}-3-(3,4-dichlorophenyl)-4,5-dihydro-1H-pyrazol-4-yl]-N-ethyl-2-hydroxyacetamide] | 44.1
CCN(C(=O)CO)C1CN(/C(=N\C#N)Nc2ccc(Cl)c(OC(F)F)c2)N=C1c1ccc(Cl)c(Cl)c1 (single isomer, unassigned) [Example 11.2, N-[1-{N-[4-chloro-3-(difluoromethoxy)phenyl]-N′-cyanocarbamimidoyl}-3-(3,4-dichlorophenyl)-4,5-dihydro-1H-pyrazol-4-yl]-N-ethyl-2-hydroxyacetamide] | 2980
CCN(C(=O)CO)C1CN(/C(=N\C#N)Nc2cccc(OC(F)(F)F)c2F)N=C1c1ccc(Cl)c(Cl)c1 (single isomer, unassigned) [Example 12.1, N-[1-{N′-cyano-N-[2-fluoro-3-(trifluoromethoxy)phenyl]carbamimidoyl}-3-(3,4-dichlorophenyl)-4,5-dihydro-1H-pyrazol-4-yl]-N-ethyl-2-hydroxyacetamide] | 2660
CCN(C(=O)CO)C1CN(/C(=N\C#N)Nc2cccc(OC(F)(F)F)c2F)N=C1c1ccc(Cl)c(Cl)c1 (single isomer, unassigned) [Example 12.2, N-[1-{N′-cyano-N-[2-fluoro-3-(trifluoromethoxy)phenyl]carbamimidoyl}-3-(3,4-dichlorophenyl)-4,5-dihydro-1H-pyrazol-4-yl]-N-ethyl-2-hydroxyacetamide] | 54.1
CCN(C(=O)CO)C1CN(/C(=N\C#N)Nc2cc(F)cc(OC(F)F)c2)N=C1c1ccc(Cl)c(Cl)c1 (single isomer, unassigned) [Example 24.1, N-[1-{N′-cyano-N-[3-(difluoromethoxy)-5-fluorophenyl]carbamimidoyl}-3-(3,4-dichlorophenyl)-4,5-dihydro-1H-pyrazol-4-yl]-N-ethyl-2-hydroxyacetamide] | 2510
CCN(C(=O)CO)C1CN(/C(=N\C#N)Nc2cc(F)cc(OC(F)F)c2)N=C1c1ccc(Cl)c(Cl)c1 (single isomer, unassigned) [Example 24.2, N-[1-{N′-cyano-N-[3-(difluoromethoxy)-5-fluorophenyl]carbamimidoyl}-3-(3,4-dichlorophenyl)-4,5-dihydro-1H-pyrazol-4-yl]-N-ethyl-2-hydroxyacetamide] | 19.2
CCN(C(=O)[C@H](C)N)C1CN(/C(=N\C#N)Nc2cccc(OC(F)F)c2)N=C1c1ccc(Cl)c(C)c1 (single isomer, unassigned) [Example 34.1, N-[3-(4-chloro-3-methylphenyl)-1-{N′-cyano-N-[3-(difluoromethoxy)phenyl]carbamimidoyl}-4,5-dihydro-1H-pyrazol-4-yl]-N-ethyl-L-alaninamide] | 15400
CCN(C(=O)[C@H](C)N)C1CN(/C(=N\C#N)Nc2cccc(OC(F)F)c2)N=C1c1ccc(Cl)c(C)c1 (single isomer, unassigned) [Example 34.2, N-[3-(4-chloro-3-methylphenyl)-1-{N′-cyano-N-[3-(difluoromethoxy)phenyl]carbamimidoyl}-4,5-dihydro-1H-pyrazol-4-yl]-N-ethyl-L-alaninamide] | 488
CCN(C(=O)[C@H](N)CC(C)C)C1CN(/C(=N\C#N)Nc2cccc(OC(F)(F)F)c2)N=C1c1ccc(Cl)c(Cl)c1 (stereo partly drawn) [Example 39, N-[1-{N′-cyano-N-[3-(trifluoromethoxy)phenyl]carbamimidoyl}-3-(3,4-dichlorophenyl)-4,5-dihydro-1H-pyrazol-4-yl]-N-ethyl-D-leucinamide] | 2400
CCN(C(=O)[C@H](N)C(C)C)C1CN(/C(=N\C#N)Nc2cccc(OC(F)(F)F)c2F)N=C1c1ccc(Cl)c(Cl)c1 (stereo partly drawn) [Example 40, N-[1-{N′-Cyano-N-[2-fluoro-3-(trifluoromethoxy)phenyl]carbamimidoyl}-3-(3,4-dichlorophenyl)-4,5-dihydro-1H-pyrazol-4-yl]-N-ethyl-D-valinamide] | 418
